According to the supplement of paper PMC13380429:

How the values were obtained:
[1] = system: A549-ACE2; test: drug-induced phospholipidosis relative to tamoxifen; higher = more phospholipidosis
[2] = system: Calu-3; test: drug sensitivity score (DSS) for viability; higher = more toxic; extreme values may be limits of the assay; details: 72 h
[3] = system: Vero E6; test: as above; details: 72 h
[4] = system: Caco-2; test: as above; details: 72 h
[5] = system: HepG2; test: as above; details: 72 h
[6] = system: U2OS; test: as above; details: 72 h
[7] = system: A549-ACE2; test: phospholipidosis EC50; higher = less potent phospholipidosis inducer
[8] = system: Calu-3; test: cell viability relative to DMSO; higher = less toxic; details: 72 h
[9] = system: Vero E6; test: as above; details: 72 h
[10] = system: Caco-2; test: as above; details: 72 h
[11] = system: HepG2; test: as above; details: 72 h
[12] = system: U2OS; test: as above; details: 72 h
[13] = system: A549-ACE2 infected with SARS-CoV-2; test: cell count relative to DMSO; higher = less toxic; details: 24 h
[14] = system: Calu-3; test: relative viability EC50 (midpoint between 100% and the lowest measured viability); higher = less toxic; details: 72 h
[15] = system: Vero E6; test: as above; details: 72 h
[16] = system: Caco-2; test: as above; details: 72 h
[17] = system: HepG2; test: as above; details: 72 h
[18] = system: U2OS; test: as above; details: 72 h
[19] = system: A549-ACE2 infected with SARS-CoV-2; test: morphology score (similarity to uninfected cells); higher = more like uninfected cells; details: 24 h
[20] = system: A549-ACE2 infected with SARS-CoV-2; test: SARS-CoV-2 infection rate relative to DMSO; higher = more infection; details: 24 h

Cc1cccc(/C=N/Nc2cc(N3CCOCC3)n3nc(-c4ccncc4)cc3n2)c1 [APY0201]
drug-induced phospholipidosis [%], [1]
Details | 0.3 µM | 0.833333 µM | 3.33333 µM | 6.66667 µM | 10 µM | 30 µM
24 h | 100 | 98.4 | 102 | 100 | 85.1 | 97.8
48 h | 105 | 98.3 | 47.8 | 39.8 | – | 61.8
72 h | 141 | 95 | 33.5 | 42.7 | – | –

Details | drug sensitivity score | relative viability EC50 [µM]
[2] | 2 | –
[3] | 10.4 | –
[4] | 1 | –
[5] | 14.8 | –
[6] | 1.2 | –
[14] | – | > 10
[15] | – | 0.392
[16] | – | > 10
[17] | – | 0.24
[18] | – | > 10

Details | SARS-CoV-2 infection rate [%] | cell count [%] | cell viability [%] | morphology score | phospholipidosis EC50 [µM]
[7], 24 h | – | – | – | – | 0.3
[7], 48 h | – | – | – | – | 1.08
[7], 72 h | – | – | – | – | 0.851
[8], 1 nM | – | – | 111 | – | –
[8], 10 nM | – | – | 101 | – | –
[8], 100 nM | – | – | 87.8 | – | –
[8], 1000 nM | – | – | 85.8 | – | –
[8], 10000 nM | – | – | 98.1 | – | –
[9], 1 nM | – | – | 110 | – | –
[9], 10 nM | – | – | 104 | – | –
[9], 100 nM | – | – | 96.7 | – | –
[9], 1000 nM | – | – | 45.6 | – | –
[9], 10000 nM | – | – | 38.2 | – | –
[10], 1 nM | – | – | 95.5 | – | –
[10], 10 nM | – | – | 101 | – | –
[10], 100 nM | – | – | 92.8 | – | –
[10], 1000 nM | – | – | 97 | – | –
[10], 10000 nM | – | – | 80.1 | – | –
[11], 1 nM | – | – | 99.8 | – | –
[11], 10 nM | – | – | 98.9 | – | –
[11], 100 nM | – | – | 82.8 | – | –
[11], 1000 nM | – | – | 31.3 | – | –
[11], 10000 nM | – | – | 22.3 | – | –
[12], 1 nM | – | – | 94.2 | – | –
[12], 10 nM | – | – | 97.7 | – | –
[12], 100 nM | – | – | 93.9 | – | –
[12], 1000 nM | – | – | 91.2 | – | –
[12], 10000 nM | – | – | 77.6 | – | –
[13], 0.3 µM | – | 113 | – | – | –
[13], 3 µM | – | 98 | – | – | –
[13], 10 µM | – | 94 | – | – | –
[13], 30 µM | – | 91 | – | – | –
[19], 0.3 µM | – | – | – | 0.21 | –
[19], 3 µM | – | – | – | -0.06 | –
[19], 10 µM | – | – | – | -0.03 | –
[19], 30 µM | – | – | – | -0.04 | –
[20], 0.3 µM | 41 | – | – | – | –
[20], 3 µM | 72 | – | – | – | –
[20], 10 µM | 72 | – | – | – | –
[20], 30 µM | 65 | – | – | – | –

CCCCc1oc2ccc(NS(C)(=O)=O)cc2c1C(=O)c1ccc(OCCCN(CCCC)CCCC)cc1 [dronedarone]
drug-induced phospholipidosis [%], [1]
Details | 0.3 µM | 0.833333 µM | 3.33333 µM | 6.66667 µM | 10 µM | 30 µM
24 h | 5.9 | 23.1 | 79.1 | 94.6 | 47.9 | 35
48 h | 9.08 | 19 | 96 | 120 | – | –
72 h | 7.98 | 17 | 94.1 | 122 | – | –

Details | drug sensitivity score | relative viability EC50 [µM]
[2] | 5.1 | –
[3] | 1.8 | –
[4] | 2.8 | –
[5] | 4.6 | –
[6] | 4.1 | –
[14] | – | 3.28
[16] | – | 3.38
[17] | – | 3.13
[18] | – | 3.29

Details | SARS-CoV-2 infection rate [%] | cell count [%] | cell viability [%] | morphology score | phospholipidosis EC50 [µM]
[7], 24 h | – | – | – | – | 0.926
[7], 48 h | – | – | – | – | 2.18
[7], 72 h | – | – | – | – | 2.34
[8], 1 nM | – | – | 102 | – | –
[8], 10 nM | – | – | 108 | – | –
[8], 100 nM | – | – | 108 | – | –
[8], 1000 nM | – | – | 102 | – | –
[8], 10000 nM | – | – | 5.7 | – | –
[9], 1 nM | – | – | 108 | – | –
[9], 10 nM | – | – | 105 | – | –
[9], 100 nM | – | – | 107 | – | –
[9], 1000 nM | – | – | 100 | – | –
[9], 10000 nM | – | – | 61.9 | – | –
[10], 1 nM | – | – | 101 | – | –
[10], 10 nM | – | – | 102 | – | –
[10], 100 nM | – | – | 94.7 | – | –
[10], 1000 nM | – | – | 102 | – | –
[10], 10000 nM | – | – | 44.6 | – | –
[11], 1 nM | – | – | 110 | – | –
[11], 10 nM | – | – | 101 | – | –
[11], 100 nM | – | – | 110 | – | –
[11], 1000 nM | – | – | 99.6 | – | –
[11], 10000 nM | – | – | 17.6 | – | –
[12], 1 nM | – | – | 100 | – | –
[12], 10 nM | – | – | 107 | – | –
[12], 100 nM | – | – | 98.1 | – | –
[12], 1000 nM | – | – | 102 | – | –
[12], 10000 nM | – | – | 23 | – | –
[13], 0.1 µM | – | 103 | – | – | –
[13], 0.3 µM | – | 100 | – | – | –
[13], 1 µM | – | 111 | – | – | –
[13], 3 µM | – | 112 | – | – | –
[19], 0.1 µM | – | – | – | 0.12 | –
[19], 0.3 µM | – | – | – | 0.11 | –
[19], 1 µM | – | – | – | 0.64 | –
[19], 3 µM | – | – | – | 0.81 | –
[20], 0.1 µM | 95 | – | – | – | –
[20], 0.3 µM | 94 | – | – | – | –
[20], 1 µM | 65 | – | – | – | –
[20], 3 µM | 13 | – | – | – | –
